{"source": "patent US20260262643A1", "about": "“HERBICIDAL BENZOXAZINES” (FMC CORPORATION, priority 2022, published 2026)", "key": {"wheat [1]": {"system": "wheat", "experiment": "Test A preemergence", "assay_type": "in vivo, Triticum aestivum", "conditions": "0 to 100 scale", "outline": "(§1)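 Loam/sand soil; pre-em directed soil spray at planting, post-em spray at 1–2 leaf (2–10 cm). Compound in non-phytotoxic solvent + surfactant. Greenhouse 10 d; visual injury vs untreated, 0 = no effect, 100 = complete control.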"}, "kochia [2]": {"system": "kochia", "experiment": "Test A preemergence", "assay_type": "in vivo, Bassia scoparia", "conditions": "0 to 100 scale", "outline": "as §1"}, "foxtail, giant [3]": {"system": "foxtail, giant", "experiment": "Test A preemergence", "assay_type": "in vivo, Setaria faberi", "conditions": "0 to 100 scale", "outline": "as §1"}, "horseweed": {"system": "horseweed", "experiment": "Test A postemergence", "assay_type": "in vivo, Erigeron canadensis", "conditions": "postemergence, 10 days", "outline": "as §1"}, "oat, wild [4]": {"system": "oat, wild", "experiment": "Test A postemergence", "assay_type": "in vivo, Avena fatua", "conditions": "postemergence, 10 days", "outline": "as §1"}, "barnyardgrass [5]": {"system": "barnyardgrass", "experiment": "Test A preemergence", "assay_type": "in vivo, Echinochloa crusgalli", "conditions": "visual injury after 10 days, 0 to 100 scale, 0 is no effect, 100 is complete control", "outline": "as §1"}, "barnyardgrass [6]": {"system": "barnyardgrass", "experiment": "Test A postemergence", "assay_type": "in vivo, Echinochloa crusgalli", "conditions": "postemergence, 10 days", "outline": "as §1"}, "barnyardgrass [7]": {"system": "barnyardgrass", "experiment": "Test B flooded paddy test", "assay_type": "in vivo, Echinochloa crus-galli", "conditions": "250 g ai/ha, Flood, 13 days, 0 to 100 scale (0 no effect, 100 complete control)", "outline": "(§2)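 Flooded to 3 cm at treatment time, 2-leaf plants got the test compound applied straight into the paddy water. They then stayed under constant flood in a greenhouse for 13 days. Ratings used a 0 to 100 visual scale.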"}, "foxtail, giant [8]": {"system": "foxtail, giant", "experiment": "Test A postemergence", "assay_type": "in vivo, Setaria faberi", "conditions": "postemergence, 10 days", "outline": "as §1"}, "pigweed, palmer [9]": {"system": "pigweed, palmer", "experiment": "Test A preemergence", "assay_type": "in vivo, Amaranthus palmeri", "conditions": "0 to 100 scale", "outline": "as §1"}, "ragweed [10]": {"system": "ragweed", "experiment": "Test A postemergence", "assay_type": "in vivo, Ambrosia artemisiifolia", "conditions": "postemergence, 10 days", "outline": "as §1"}, "sedge, umbrella": {"system": "sedge, umbrella", "experiment": "Test B flooded paddy test", "assay_type": "in vivo, Cyperus difformis", "conditions": "250 g ai/ha, Flood, 13 days, 0 to 100 scale (0 no effect, 100 complete control)", "outline": "as §2"}, "ryegrass, Italian [11]": {"system": "ryegrass, Italian", "experiment": "Test A postemergence", "assay_type": "in vivo, Lolium multiflorum", "conditions": "postemergence, 10 days", "outline": "as §1"}, "blackgrass [12]": {"system": "blackgrass", "experiment": "Test A preemergence", "assay_type": "in vivo, Alopecurus myosuroides", "conditions": "0 to 100 scale", "outline": "as §1"}, "ryegrass, Italian [13]": {"system": "ryegrass, Italian", "experiment": "Test A preemergence", "assay_type": "in vivo, Lolium multiflorum", "conditions": "0 to 100 scale", "outline": "as §1"}, "kochia [14]": {"system": "kochia", "experiment": "Test A postemergence", "assay_type": "in vivo, Bassia scoparia", "conditions": "postemergence, 10 days", "outline": "as §1"}, "pigweed, palmer [15]": {"system": "pigweed, palmer", "experiment": "Test A postemergence", "assay_type": "in vivo, Amaranthus palmeri", "conditions": "postemergence, 10 days", "outline": "as §1"}, "soybean [16]": {"system": "soybean", "experiment": "Test A preemergence", "assay_type": "in vivo, Glycine max", "conditions": "0 to 100 scale", "outline": "as §1"}, "corn [17]": {"system": "corn", "experiment": "Test A postemergence", "assay_type": "in vivo, Zea mays", "conditions": "postemergence, 10 days", "outline": "as §1"}, "rice": {"system": "rice", "experiment": "Test B flooded paddy test", "assay_type": "in vivo, Oryza sativa", "conditions": "250 g ai/ha, Flood, 13 days, 0 to 100 scale (0 no effect, 100 complete control)", "outline": "as §2"}, "ragweed [18]": {"system": "ragweed", "experiment": "Test A preemergence", "assay_type": "in vivo, Ambrosia artemisiifolia", "conditions": "0 to 100 scale", "outline": "as §1"}, "wheat [19]": {"system": "wheat", "experiment": "Test A postemergence", "assay_type": "in vivo, Triticum aestivum", "conditions": "postemergence, 10 days", "outline": "as §1"}, "ducksalad": {"system": "ducksalad", "experiment": "Test B flooded paddy test", "assay_type": "in vivo, Heteranthera limosa", "conditions": "250 g ai/ha, Flood, 13 days, 0 to 100 scale (0 no effect, 100 complete control)", "outline": "as §2"}, "oat, wild [20]": {"system": "oat, wild", "experiment": "Test A preemergence", "assay_type": "in vivo, Avena fatua", "conditions": "0 to 100 scale", "outline": "as §1"}, "corn [21]": {"system": "corn", "experiment": "Test A preemergence", "assay_type": "in vivo, Zea mays", "conditions": "0 to 100 scale", "outline": "as §1"}, "blackgrass [22]": {"system": "blackgrass", "experiment": "Test A postemergence", "assay_type": "in vivo, Alopecurus myosuroides", "conditions": "postemergence, 10 days", "outline": "as §1"}, "soybean [23]": {"system": "soybean", "experiment": "Test A postemergence", "assay_type": "in vivo, Glycine max", "conditions": "postemergence, 10 days", "outline": "as §1"}, "galium": {"system": "galium", "experiment": "Test A postemergence", "assay_type": "in vivo, Galium aparine", "conditions": "postemergence, 10 days", "outline": "as §1"}, "[24]": {"conditions": "500 g ai/ha, visual injury after 10 days, 0 is no effect, 100 is complete control"}, "[25]": {"conditions": "125 g ai/ha, 0 to 100 scale, 0 no effect, 100 complete control"}, "[26]": {"conditions": "500 g ai/ha, visual injury, 0 to 100 scale (0 no effect, 100 complete control)"}}, "data": [{"smiles": "COc1cc(C(=O)N2C[C@H](C)Oc3c(Cl)cccc32)cc(-n2cncn2)c1", "note": "[Compound 138]", "values": [{"measurement": "Plant response rating, Wheat", "setting": "wheat [1]; 125 g ai/ha", "value": 40}, {"measurement": "Plant response rating, Wheat", "setting": "wheat [1]; [24]", "value": 90}, {"measurement": "Plant response rating, Kochia", "setting": "kochia [2]; 125 g ai/ha", "value": 0}, {"measurement": "Plant response rating, Kochia", "setting": "kochia [2]; [24]", "value": 50}, {"measurement": "Plant response rating, Foxtail, Giant", "setting": "foxtail, giant [3]; 125 g ai/ha", "value": 100}, {"measurement": "Plant response rating, Foxtail, Giant", "setting": "foxtail, giant [3]; [24]", "value": 100}, {"measurement": "Horseweed plant response rating", "setting": "horseweed; [25]", "value": 0}, {"measurement": "Plant response rating, Horseweed", "setting": "horseweed; [26]", "value": 0}, {"measurement": "Oat, Wild plant response rating", "setting": "oat, wild [4]; [25]", "value": 50}, {"measurement": "Plant response rating, Oat, Wild", "setting": "oat, wild [4]; [26]", "value": 80}, {"measurement": "Plant response rating, Barnyardgrass", "setting": "barnyardgrass [5]; 125 g ai/ha", "value": 90}, {"measurement": "Plant response rating, Barnyardgrass", "setting": "barnyardgrass [5]; 500 g ai/ha", "value": 100}, {"measurement": "Barnyardgrass plant response rating", "setting": "barnyardgrass [6]; [25]", "value": 60}, {"measurement": "Plant response rating, Barnyardgrass", "setting": "barnyardgrass [6]; [26]", "value": 80}, {"measurement": "Plant response rating, Barnyardgrass", "setting": "barnyardgrass [7]", "value": 35}, {"measurement": "Foxtail, Giant plant response rating", "setting": "foxtail, giant [8]; [25]", "value": 90}, {"measurement": "Plant response rating, Foxtail, Giant", "setting": "foxtail, giant [8]; [26]", "value": 90}, {"measurement": "Plant response rating, Pigweed, Palmer", "setting": "pigweed, palmer [9]; 125 g ai/ha", "value": 90}, {"measurement": "Plant response rating, Pigweed, Palmer", "setting": "pigweed, palmer [9]; [24]", "value": 100}, {"measurement": "Ragweed plant response rating", "setting": "ragweed [10]; [25]", "value": 0}, {"measurement": "Plant response rating, Ragweed", "setting": "ragweed [10]; [26]", "value": 40}, {"measurement": "Plant response rating, Sedge, Umbrella", "setting": "sedge, umbrella", "value": 75}, {"measurement": "Ryegrass, Italian plant response rating", "setting": "ryegrass, Italian [11]; [25]", "value": 70}, {"measurement": "Plant response rating, Ryegrass, Italian", "setting": "ryegrass, Italian [11]; [26]", "value": 100}, {"measurement": "Plant response rating, Blackgrass", "setting": "blackgrass [12]; 125 g ai/ha", "value": 80}, {"measurement": "Plant response rating, Blackgrass", "setting": "blackgrass [12]; [24]", "value": 90}, {"measurement": "Plant response rating, Ryegrass, Italian", "setting": "ryegrass, Italian [13]; 125 g ai/ha", "value": 80}, {"measurement": "Plant response rating, Ryegrass, Italian", "setting": "ryegrass, Italian [13]; [24]", "value": 100}, {"measurement": "Kochia plant response rating", "setting": "kochia [14]; [25]", "value": 80}, {"measurement": "Plant response rating, Kochia", "setting": "kochia [14]; [26]", "value": 80}, {"measurement": "Pigweed, Palmer plant response rating", "setting": "pigweed, palmer [15]; [25]", "value": 30}, {"measurement": "Plant response rating, Pigweed, Palmer", "setting": "pigweed, palmer [15]; [26]", "value": 90}, {"measurement": "Plant response rating, Soybean", "setting": "soybean [16]; 125 g ai/ha", "value": 70}, {"measurement": "Plant response rating, Soybean", "setting": "soybean [16]; [24]", "value": 100}, {"measurement": "Corn plant response rating", "setting": "corn [17]; [25]", "value": 80}, {"measurement": "Plant response rating, Corn", "setting": "corn [17]; [26]", "value": 90}, {"measurement": "Plant response rating, Rice", "setting": "rice", "value": 35}, {"measurement": "Plant response rating, Ragweed", "setting": "ragweed [18]; 125 g ai/ha", "value": 0}, {"measurement": "Plant response rating, Ragweed", "setting": "ragweed [18]; [24]", "value": 0}, {"measurement": "Wheat plant response rating", "setting": "wheat [19]; [25]", "value": 40}, {"measurement": "Plant response rating, Wheat", "setting": "wheat [19]; [26]", "value": 80}, {"measurement": "Plant response rating, Ducksalad", "setting": "ducksalad", "value": 70}, {"measurement": "Plant response rating, Oat, Wild", "setting": "oat, wild [20]; 125 g ai/ha", "value": 40}, {"measurement": "Plant response rating, Oat, Wild", "setting": "oat, wild [20]; [24]", "value": 90}, {"measurement": "Plant response rating, Corn", "setting": "corn [21]; 125 g ai/ha", "value": 10}, {"measurement": "Plant response rating, Corn", "setting": "corn [21]; [24]", "value": 10}, {"measurement": "Blackgrass plant response rating", "setting": "blackgrass [22]; [25]", "value": 80}, {"measurement": "Plant response rating, Blackgrass", "setting": "blackgrass [22]; [26]", "value": 90}, {"measurement": "Soybean plant response rating", "setting": "soybean [23]; [25]", "value": 100}, {"measurement": "Plant response rating, Soybean", "setting": "soybean [23]; [26]", "value": 100}, {"measurement": "Galium plant response rating", "setting": "galium; [25]", "value": 80}, {"measurement": "Plant response rating, Galium", "setting": "galium; [26]", "value": 100}]}]}
